Results reported in patent publication US20250026745A1 (Bluejay Therapeutics, Inc., priority 2023, published 2025).
Like-named read-outs stand apart in the source and are kept apart here.

What was measured:
[1] = target: recombinant 17β-HSD13 protein (Homo sapiens (Human), UniProt Q7Z5P4); assay: 17β-HSD13 biochemical assay (NAD+/NADH Glo chemiluminescence); conditions: 17β-HSD13 50 nM, NAD+ 10 mM, β-estradiol 20 μM, 2 hours room temperature
Outline: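 Compounds preincubated 1 h at room temperature with 50 nM enzyme and 10 mM NAD+ (final) in 200 mM Tris pH 7.5, 0.01% Triton X-100, 0.02% BSA. Reaction started with 20 μM β-estradiol and run 2 hours at room temperature; NADH formation detected by NAD+/NADH-Glo chemiluminescence. IC50 from four-parameter logistic fit.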

[2] = target: HEK293 cells expressing 17β-HSD13 (Homo sapiens (Human), UniProt Q7Z5P4); assay: 17β-HSD13 cell-based assay (β-estradiol conversion, LC-MS/MS)
Sequence of HEK293 cells expressing 17β-HSD13 (Q7Z5P4 20-300): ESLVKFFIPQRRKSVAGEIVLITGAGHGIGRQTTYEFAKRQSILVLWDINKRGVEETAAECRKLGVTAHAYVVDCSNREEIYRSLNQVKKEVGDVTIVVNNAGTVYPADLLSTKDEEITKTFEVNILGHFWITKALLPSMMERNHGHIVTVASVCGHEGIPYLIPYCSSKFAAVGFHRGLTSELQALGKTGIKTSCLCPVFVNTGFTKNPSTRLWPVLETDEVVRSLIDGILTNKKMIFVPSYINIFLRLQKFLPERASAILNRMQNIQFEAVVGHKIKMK
Description: HEK293 cells expressing 17β-HSD13 either stably or transiently were incubated with compounds for 60 min at 37° C. in a humidified incubator. After this first incubation step, β-estradiol was added to each well of the microtiter plate and incubated for 3 h at 37° C. in the humidified incubator. After treatment with β-Estradiol, 50 μL of supernatant was transferred to a 96-V plate containing 100 μL acetonitrile and centrifuged at 3900 rpm for 45 min. Finally, 50 μL of supernatant were taken for LC-MS/MS analysis. The chromatography part was run on a Xbridge 30 mm×2.1 mm column (Waters), at 40 degrees Celsius and a flow rate of 0.8 mL/min for 5 min, while the MS was done on a Q Exactive Orbitrap (Fisher Scientific) in Target SIM mode and negative polarity with a spray voltage of 3.5 kV. EC50 values were determined with GraphPad Prism®, where log-transformed concentration values and the inhibition data were fitted to a four-parameter logistic equation. Y=Bottom+(Top−Bottom)/(1+10^((Log EC50−X)*Hill Slope)). The original, % control, or % inhibition data are represented by Y along with their minimal (Bottom) and maximal (Top) values. The inhibitor concentration is represented by X, EC50 is the concentration at 50% maximal value, and Hill Slope is the slope factor.

[3] = Recovery of glucuronide Compound I-51 spiked into mouse liver tissue homogenate (30% ACN in water with 2% FA); type: in vitro ADME; conditions: parent Compound I-16 measured in I-51-spiked sample
From the text: Compound I-51, a glucuronide of compound I-16, was used to develop methodology to ensure the glucuronide metabolite of the phenol could be stabilized in liver tissue to glucuronidase and other enzymatic cleavage in order to determine accurate levels of parent:glucuronide in the liver tissue. A known amount of Compound I-51 was spiked into a gram of mouse liver tissue where 2% formic acid (FA) was used with 30% acetonitrile (ACN) in water to stop all enzymatic glucuronidase activity.
Comparison of Treatment on ‘30% ACN in Water with 2% FA’ Homogenate Buffer for Compound I-51:
1). Prepared the homogenate buffer ‘30% ACN in water with 2% FA’ (including […] Compound 1-51), then homogenized with the liver tissue together. Due to the ratio of 1:9 (1 g tissue with 9 mL buffer), the final concentration was 900 ng/mL.
2). An aliquot of 20 μL sample were taken for analysis. Compound I-51 was Added after Homogenate:
1). The liver tissue was homogenized with the buffer ‘30% ACN in water with 2% FA’, then 2 μL 18 µg/mL Compound I-51 was spiked in 38 μL liver homogenate, the final concentration was 900 ng/mL. 2). An aliquot of 20 μL sample were taken for analysis. […]
The amount of parent was measured under these conditions Compound I-16 after generating a standard curve for Compound I-16.

[4] = cited from earlier work
[5] = HEK293 cells stably expressing 17β-HSD13 (footnote b), read-out: EC50, nM Stable
[6] = HEK293 cells transiently expressing 17β-HSD13 (footnote a), read-out: EC50, nM Transient

Sequence of recombinant 17β-HSD13 protein (Q7Z5P4 20-300): as above

| SMILES | IC50 [1] | EC50 [2, 5] | EC50 [2, 6] | Calculated Concentration (ng/mL) of parent ([3]; after homogenate) | Calculated Concentration (ng/mL) of parent ([3]; before homogenate) | glucuronidation / in vivo clearance [4] |
| --- | --- | --- | --- | --- | --- | --- |
| O=C1N(CC(F)(F)F)C(=O)C2(CC2)N1Cc1nnc(-c2ccc(F)c(O)c2Cl)s1 [Compound I-16, 4-((5-(2-chloro-4-fluoro-3-hydroxyphenyl)-1,3,4-thiadiazol-2-yl)methyl)-6-(2,2,2-trifluoroethyl)-4,6-diazaspiro[2.4]heptane-5,7-dione] | 12.9 ± 2.43 nM | 37.1 nM | 107 nM | 5.237 ng/mL | 5.618 ng/mL |  |
| CCn1c(=O)c(C)cn(Cc2ccc(-c3ccc(F)c(O)c3F)s2)c1=O [BI-3231] |  |  |  |  |  | prone to rapid glucuronidation on the phenol moiety leading to fast in vivo clearance |
| O=C1N(C2CCC2)C(=O)C2(CC2)N1Cc1nnc(-c2ccc(F)c(O)c2F)s1 [Compound I-30, 6-cyclobutyl-4-((5-(2,4-difluoro-3-hydroxyphenyl)-1,3,4-thiadiazol-2-yl)methyl)-4,6-diazaspiro[2.4]heptane-5,7-dione] | 7.08 nM | 35.9 nM |  |  |  |  |
| CC[C@@H](C)N1C(=O)N(Cc2nnc(-c3ccc(F)c(O)c3F)s2)C2(CC2)C1=O [Compound I-42, (R)-6-(sec-butyl)-4-((5-(2,4-difluoro-3-hydroxyphenyl)-1,3,4-thiadiazol-2-yl)methyl)-4,6-diazaspiro[2.4]heptane-5,7-dione] | 4.08 nM | 15.7 nM |  |  |  |  |
| C[C@@H](c1ccccc1)N1C(=O)N(Cc2nnc(-c3ccc(F)c(O)c3F)s2)C2(CC2)C1=O [Compound I-83, (S)-4-((5-(2,4-difluoro-3-hydroxyphenyl)-1,3,4-thiadiazol-2-yl)methyl)-6-(1-phenylethyl)-4,6-diazaspiro[2.4]heptane-5,7-dione] | 2 ± 0.588 nM | 10.4 nM |  |  |  |  |
| O=C1N(CC2(C(F)(F)F)CC2)C(=O)C2(CC2)N1Cc1nnc(-c2ccc(F)c(O)c2F)s1 [Compound I-19, 4-((5-(2,4-difluoro-3-hydroxyphenyl)-1,3,4-thiadiazol-2-yl)methyl)-6-((1-(trifluoromethyl)cyclopropyl)methyl)-4,6-diazaspiro[2.4]heptane-5,7-dione] | 14.8 ± 2.51 nM | 78.8 nM |  |  |  |  |
| CCN1C(=O)N(Cc2nnc(-c3cc(O)cc(C(F)(F)F)c3)s2)C2(CC2)C1=O [Compound I-22, 6-ethyl-4-((5-(3-hydroxy-5-(trifluoromethyl)phenyl)-1,3,4-thiadiazol-2-yl)methyl)-4,6-diazaspiro[2.4]heptane-5,7-dione] | 41 ± 3.9 nM | 144 nM |  |  |  |  |
| C[C@H](c1ccccc1)N1C(=O)N(Cc2nnc(-c3ccc(F)c(O)c3Cl)s2)C2(CC2)C1=O [Compound I-31, 4-[[5-(2-chloro-4-fluoro-3-hydroxy-phenyl)-1,3,4-thiadiazol-2-yl]methyl]-6-[(1R)-1-phenylethyl]-4,6-diazaspiro[2.4]heptane-5,7-dione] | 2.68 nM | 10.8 nM |  |  |  |  |
| CCN1C(=O)N(Cc2nnc(-c3ccc(F)c(O)c3Cl)s2)C2(CC2)C1=O [Compound I-10, 4-((5-(2-chloro-4-fluoro-3-hydroxyphenyl)-1,3,4-thiadiazol-2-yl)methyl)-6-ethyl-4,6-diazaspiro[2.4]heptane-5,7-dione] | 17.9 ± 0.0566 nM | 51 nM | 118 nM |  |  |  |

Further compounds by falling IC50 [1], results first:

| IC50 [1] | EC50 [2, 5] | EC50 [2, 6] | Calculated Concentration (ng/mL) of parent ([3]; after homogenate) | Calculated Concentration (ng/mL) of parent ([3]; before homogenate) | SMILES | glucuronidation / in vivo clearance [4] |
| --- | --- | --- | --- | --- | --- | --- |
| 86.1 nM |  | 175 nM |  |  | CCN1C(=O)C(C)N(Cc2nnc(-c3ccc(F)c(O)c3F)s2)C1=O (stereo not drawn) [Compound I-3, 1-((5-(2,4-difluoro-3-hydroxyphenyl)-1,3,4-thiadiazol-2-yl)methyl)-3-ethyl-5-methylimidazolidine-2,4-dione] |  |
| 18.7 ± 2.67 nM | 107 nM |  |  |  | O=C1N(CC2(C(F)(F)F)CC2)C(=O)C2(CC2)N1Cc1nnc(-c2ccc(F)c(O)c2Cl)s1 [Compound I-26, 4-((5-(2-chloro-4-fluoro-3-hydroxyphenyl)-1,3,4-thiadiazol-2-yl)methyl)-6-((1-(trifluoromethyl)cyclopropyl)methyl)-4,6-diazaspiro[2.4]heptane-5,7-dione] |  |
| 9.8 nM | 66.4 nM |  |  |  | O=C1N(CC(F)(F)F)C(=O)C2(CC2)N1Cc1nnc(-c2cc(C(F)(F)F)cc(O)c2Cl)s1 [Compound I-40, 4-((5-(2-chloro-3-hydroxy-5-(trifluoromethyl)phenyl)-1,3,4-thiadiazol-2-yl)methyl)-6-(2,2,2-trifluoroethyl)-4,6-diazaspiro[2.4]heptane-5,7-dione] |  |
| 9.6 nM | 125 nM |  |  |  | CCN1C(=O)N(Cc2nnc(-c3cc(C(F)(F)F)cc(O)c3F)s2)C2(CC2)C1=O [Compound I-14, 6-ethyl-4-[[5-[2-fluoro-3-hydroxy-5-(trifluoromethyl)phenyl]-1,3,4-thiadiazol-2-yl]methyl]-4,6-diazaspiro[2.4]heptane-5,7-dione] |  |
| 8.07 ± 1.77 nM | 40.9 ± 25 nM |  |  |  | O=C1N(CC(F)(F)F)C(=O)C2(CC2)N1Cc1nnc(-c2ccc(F)c(O)c2F)s1 [Compound I-15, 4-((5-(2,4-difluoro-3-hydroxyphenyl)-1,3,4-thiadiazol-2-yl)methyl)-6-(2,2,2-trifluoroethyl)-4,6-diazaspiro[2.4]heptane-5,7-dione] |  |
| 5.6 nM | 26.3 nM |  |  |  | O=C1N(C(c2ccccc2)C(F)(F)F)C(=O)C2(CC2)N1Cc1nnc(-c2ccc(F)c(O)c2Cl)s1 (stereo in doubt) [Compound I-53, 4-[[5-(2-chloro-4-fluoro-3-hydroxy-phenyl)-1,3,4-thiadiazol-2-yl]methyl]-6-[(S)-(difluoromethyl-fluoranyl)-phenyl-methyl]-4,6-diazaspiro[2.4]heptane-5,7-dione] |  |
| 4.6 nM | 119 nM |  |  |  | O=C1N(Cc2ccc(Cl)cc2Cl)C(=O)C2(CC2)N1Cc1nnc(-c2ccc(F)c(O)c2Cl)s1 [Compound I-34, 4-((5-(2-chloro-4-fluoro-3-hydroxyphenyl)-1,3,4-thiadiazol-2-yl)methyl)-6-(2,4-dichlorobenzyl)-4,6-diazaspiro[2.4]heptane-5,7-dione] |  |
| 2.46 nM | 52.7 nM |  |  |  | O=C1N(Cc2ccccc2)C(=O)C2(CC2)N1Cc1nnc(-c2cc(C(F)(F)F)c(F)c(O)c2F)s1 [Compound I-57, 6-benzyl-4-((5-(2,4-difluoro-3-hydroxy-5-(trifluoromethyl)phenyl)-1,3,4-thiadiazol-2-yl)methyl)-4,6-diazaspiro[2.4]heptane-5,7-dione] |  |
| 1.76 ± 0.26 nM | 8.42 nM |  |  |  | C[C@H](c1ccccc1)N1C(=O)N(Cc2nnc(-c3ccc(F)c(O)c3F)s2)C2(CC2)C1=O [Compound I-82, (R)-4-((5-(2,4-difluoro-3-hydroxyphenyl)-1,3,4-thiadiazol-2-yl)methyl)-6-(1-phenylethyl)-4,6-diazaspiro[2.4]heptane-5,7-dione] |  |
